Assay results from ChEMBL document CHEMBL1201862, “PubChem BioAssay data set” (2004).
The source made the active and inactive calls.

Assays:
Nonstructural protein 1 = Nonstructural protein 1 (Influenza A virus, UniProt Q194T2); assay type: functional, Influenza A virus (A/California/07/2009(H1N1))
[1] = target: T1, Corticotropin-releasing factor receptor 2/Corticotropin-releasing factor-binding protein (Homo sapiens, UniProt P24387+Q13324); test: activators of CRF receptor 2 with binding protein – uHTS hits, confirmation (AID 602473); assay type: functional; settings: read-out: EC50_Mean
T1 sequence (Q13324 whole entry): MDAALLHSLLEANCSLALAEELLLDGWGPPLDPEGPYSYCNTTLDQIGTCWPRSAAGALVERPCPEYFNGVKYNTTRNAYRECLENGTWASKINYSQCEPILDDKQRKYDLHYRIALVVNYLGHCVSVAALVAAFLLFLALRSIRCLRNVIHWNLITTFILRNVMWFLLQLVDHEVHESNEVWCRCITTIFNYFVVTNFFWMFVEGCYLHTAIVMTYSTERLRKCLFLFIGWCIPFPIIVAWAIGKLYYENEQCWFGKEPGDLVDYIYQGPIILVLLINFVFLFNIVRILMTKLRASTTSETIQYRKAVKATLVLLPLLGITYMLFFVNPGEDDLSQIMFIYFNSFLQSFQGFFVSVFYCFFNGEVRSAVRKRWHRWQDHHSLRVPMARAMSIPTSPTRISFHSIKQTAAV
T1 sequence (P24387 whole entry): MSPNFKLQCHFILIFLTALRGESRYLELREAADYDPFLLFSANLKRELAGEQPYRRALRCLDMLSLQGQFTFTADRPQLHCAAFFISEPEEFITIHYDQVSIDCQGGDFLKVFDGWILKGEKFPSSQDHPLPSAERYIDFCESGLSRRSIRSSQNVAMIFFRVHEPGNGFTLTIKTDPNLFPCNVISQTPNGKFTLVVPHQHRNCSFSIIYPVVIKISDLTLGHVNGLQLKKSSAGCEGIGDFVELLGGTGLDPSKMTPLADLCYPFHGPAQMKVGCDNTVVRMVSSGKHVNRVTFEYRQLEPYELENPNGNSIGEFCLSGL

Genome polyprotein = Genome polyprotein (dengue virus type 2, UniProt P29990); test: Dengue-2 NS5 methyltransferase inhibitors, primary screen, biochemical, confirmation dose response (AID 588689); assay type: functional
Sequence of Genome polyprotein (P29990 2492-3391 limits assumed): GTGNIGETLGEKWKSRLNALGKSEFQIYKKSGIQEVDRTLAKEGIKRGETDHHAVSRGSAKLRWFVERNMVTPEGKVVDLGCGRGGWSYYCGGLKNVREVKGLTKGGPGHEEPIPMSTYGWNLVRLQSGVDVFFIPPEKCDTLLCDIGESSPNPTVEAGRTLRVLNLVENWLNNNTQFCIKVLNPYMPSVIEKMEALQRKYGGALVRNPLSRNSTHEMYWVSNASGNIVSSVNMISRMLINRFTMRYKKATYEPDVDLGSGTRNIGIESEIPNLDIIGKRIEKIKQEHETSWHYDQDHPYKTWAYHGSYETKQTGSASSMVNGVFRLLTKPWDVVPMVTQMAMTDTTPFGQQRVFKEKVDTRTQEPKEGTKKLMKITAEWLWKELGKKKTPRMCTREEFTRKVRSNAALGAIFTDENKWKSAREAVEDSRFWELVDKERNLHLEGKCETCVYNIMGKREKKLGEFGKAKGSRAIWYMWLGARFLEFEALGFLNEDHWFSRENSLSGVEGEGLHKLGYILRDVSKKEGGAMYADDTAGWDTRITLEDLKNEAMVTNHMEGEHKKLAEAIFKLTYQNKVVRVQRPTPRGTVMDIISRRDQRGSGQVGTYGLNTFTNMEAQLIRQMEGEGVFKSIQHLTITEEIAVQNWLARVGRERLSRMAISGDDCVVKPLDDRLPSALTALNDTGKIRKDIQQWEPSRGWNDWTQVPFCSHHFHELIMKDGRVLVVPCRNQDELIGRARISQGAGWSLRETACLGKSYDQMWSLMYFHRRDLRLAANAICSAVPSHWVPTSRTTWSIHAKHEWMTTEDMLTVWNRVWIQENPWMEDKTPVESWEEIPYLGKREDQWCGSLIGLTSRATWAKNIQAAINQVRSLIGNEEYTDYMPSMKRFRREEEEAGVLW

[2] = target: T2, Calpain-2 catalytic subunit (Sus scrofa, UniProt P43367); test: pig calpain II inhibitor potency, dose response, biochemical, fluorogenic peptide substrate (AID 1420); assay type: functional
T2 sequence (P43367 whole entry): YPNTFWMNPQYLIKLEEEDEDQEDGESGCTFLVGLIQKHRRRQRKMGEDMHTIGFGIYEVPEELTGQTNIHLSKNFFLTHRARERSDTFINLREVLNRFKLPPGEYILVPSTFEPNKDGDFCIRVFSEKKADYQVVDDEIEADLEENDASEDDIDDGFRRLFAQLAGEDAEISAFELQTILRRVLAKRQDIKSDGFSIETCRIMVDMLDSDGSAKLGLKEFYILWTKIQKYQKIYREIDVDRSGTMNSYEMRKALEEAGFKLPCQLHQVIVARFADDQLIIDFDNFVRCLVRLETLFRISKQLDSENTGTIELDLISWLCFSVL

[3] = inhibitors of firefly luciferase expression or activity, dose response, H4 neuroglioma cells, luminescence (AID 1990); assay type: functional, cell-based
[4] = inhibitors of SNCA 5'UTR-driven reporter translation, confirmation, H4 neuroglioma cells, luminescence (AID 1988); assay type: functional, cell-based
[5] = Luminescence Cell-Based Dose Response HTS to Identify Inhibitors of 5'UTR Stem-Loop Driven Prion Protein mRNA Translation in H4 Neuroglioblastoma Cells. [Related pubchem assays: 1827 (Project Summary), 1813 (Primary HTS)]; assay type: functional
[6] = target: T3, RNA-binding protein pos-1 (Caenorhabditis elegans, UniProt G5EF15); test: inhibitors of POS-1/mex-3 RNA binding, dose response, biochemical, fluorescence polarization (AID 1964);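 also: purified POS-1 fused to maltose binding protein made in E. coli; potency of compounds blocking POS-1 binding to fluorescent RNA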
T3 sequence (G5EF15 whole entry): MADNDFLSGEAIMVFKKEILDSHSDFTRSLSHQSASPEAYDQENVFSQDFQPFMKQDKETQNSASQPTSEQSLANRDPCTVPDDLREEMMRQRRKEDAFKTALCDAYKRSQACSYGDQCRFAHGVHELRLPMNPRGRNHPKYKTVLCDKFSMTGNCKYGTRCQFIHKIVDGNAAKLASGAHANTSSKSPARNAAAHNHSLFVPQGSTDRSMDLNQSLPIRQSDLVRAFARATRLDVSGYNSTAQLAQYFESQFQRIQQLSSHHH

[7] = target: T4, Zinc finger protein mex-5 (Caenorhabditis elegans, UniProt Q9XUB2); test: MEX-5/TCR-2 RNA interaction inhibitors, dose response, biochemical, C. elegans, fluorescence polarization (AID 1960)
T4 sequence (Q9XUB2 whole entry): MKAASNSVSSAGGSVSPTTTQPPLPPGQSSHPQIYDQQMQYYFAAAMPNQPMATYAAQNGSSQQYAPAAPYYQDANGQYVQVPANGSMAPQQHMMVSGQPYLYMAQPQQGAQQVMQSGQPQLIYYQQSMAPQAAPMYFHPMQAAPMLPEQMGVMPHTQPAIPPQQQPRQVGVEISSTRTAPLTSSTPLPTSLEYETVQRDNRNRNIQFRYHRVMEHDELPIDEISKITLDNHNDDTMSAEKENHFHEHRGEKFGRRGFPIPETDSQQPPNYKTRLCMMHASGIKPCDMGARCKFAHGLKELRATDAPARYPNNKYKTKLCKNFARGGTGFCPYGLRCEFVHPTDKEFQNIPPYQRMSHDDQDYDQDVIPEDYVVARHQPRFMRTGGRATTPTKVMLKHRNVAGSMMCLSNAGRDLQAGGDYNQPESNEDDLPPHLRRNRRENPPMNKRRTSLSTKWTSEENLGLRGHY

[8] = microbe, parasite or virus in culture; assay type: functional; settings: Mycobacterium tuberculosis
[9] = target: T5, High affinity choline transporter 1 (Homo sapiens, UniProt Q9GZV3); test: CHT inhibitors, dose response, cell-based, 5-point CRC, membrane potential dye (AID 504840); assay type: functional
T5 sequence (Q9GZV3 whole entry): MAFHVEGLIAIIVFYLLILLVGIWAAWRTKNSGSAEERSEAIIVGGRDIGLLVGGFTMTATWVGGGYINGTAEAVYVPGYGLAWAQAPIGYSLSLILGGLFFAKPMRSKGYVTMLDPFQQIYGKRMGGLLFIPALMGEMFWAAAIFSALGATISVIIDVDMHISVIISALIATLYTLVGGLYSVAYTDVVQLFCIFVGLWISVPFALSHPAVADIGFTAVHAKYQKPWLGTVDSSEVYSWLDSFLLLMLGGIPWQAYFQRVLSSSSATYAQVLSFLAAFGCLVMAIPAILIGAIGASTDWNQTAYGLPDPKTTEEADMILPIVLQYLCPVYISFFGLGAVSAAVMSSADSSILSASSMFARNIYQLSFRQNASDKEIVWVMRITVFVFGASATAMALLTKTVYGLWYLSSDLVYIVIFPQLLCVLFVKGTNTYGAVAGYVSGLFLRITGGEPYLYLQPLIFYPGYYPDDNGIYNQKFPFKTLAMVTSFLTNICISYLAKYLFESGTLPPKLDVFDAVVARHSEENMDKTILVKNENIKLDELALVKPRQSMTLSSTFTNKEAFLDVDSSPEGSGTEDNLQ

[10] = control 3'UTR Renilla luciferase suppression, dose response, counter-screen for Shn3 inhibitor project, cell-based, Clone20-Shn3RL, cherry-picked (AID 624133); assay type: functional
[11] = Shn3 3'UTR reporter inhibitors, dose response, cell-based, Clone20 osteoblasts, firefly luciferase, cherry-picked (AID 624132); assay type: functional;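 also: firefly luciferase luminescence from reporter carrying the Shn3 3'UTR in osteoblasts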

Sequence of Nonstructural protein 1 (Q194T2 whole entry): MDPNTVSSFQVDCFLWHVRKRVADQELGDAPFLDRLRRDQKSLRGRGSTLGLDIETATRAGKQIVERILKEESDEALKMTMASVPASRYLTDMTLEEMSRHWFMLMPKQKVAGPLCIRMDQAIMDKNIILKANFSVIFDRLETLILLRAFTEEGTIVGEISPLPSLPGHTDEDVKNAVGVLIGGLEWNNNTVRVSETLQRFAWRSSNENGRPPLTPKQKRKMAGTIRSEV

CCCCNc1c([N+](=O)[O-])cc(C)cc1[N+](=O)[O-]
IC50 (Nonstructural protein 1): 27.1 µM (active)

CCCS(=O)(=O)c1nc(S(=O)(=O)c2ccc(C)cc2)c(N2CCCC2)s1
EC50 [1]: > 53 µM (inactive)

C=CCN1C(=O)/C(=C/c2cccs2)C(=O)NC1=S
IC50 (Genome polyprotein): 43.8 µM (active)

O=C(Nc1ccc2ccccc2c1)C(=O)C1C(=O)Nc2ccccc21 (stereo not given)
IC50 [2]: < 0.4 µM (not active)

CC(C)(C)OC(=O)N1CC=C2C(C#N)=C(N)C(C#N)(C#N)[C@H](c3cccnc3)[C@H]2C1
EC50 [3]: > 120 µM (not active) | EC50 [4]: 60.3 µM (active) | EC50 [5]: > 120 µM (not active) | EC50 [6]: 61.7 µM (active) | EC50 [7]: 54 µM (active) | IC50 (Genome polyprotein): > 100 µM (active)

CN(C)c1ccc(N=Nc2ccccc2C(=O)OCC(=O)N(C)c2ccccc2)cc1
IC50 (Nonstructural protein 1): 21.2 µM (active)

CNc1nc(NN)nc(Nc2ccccc2)n1
IC50 (Nonstructural protein 1): 15 µM (active)

COc1ccc(S(=O)(=O)N2CCOCC2)cc1N=Nc1sc(N)nc1-c1ccccc1
EC50 [3]: 14.7 µM (active) | EC50 [4]: 46.6 µM (active) | EC50 [5]: > 120 µM (not active) | IC50 (Nonstructural protein 1): > 100 µM (active)

c1ccc2c(C3=NN=C(NC4CCCCC4)SC3)c[nH]c2c1
IC50 [2]: 6.76 µM (not active) | CC50 [8]: > 40 µM (active)

CCN(CC)c1[nH]cnc2c3ccccc3nc1-2
IC50 [9]: 13.8 µM (active)

CN(C)CCn1c(=S)[nH]c2ccccc2c1=O
IC50 [9]: 13.2 µM (active)

CCCCNC(=S)NC(=O)c1ccc(Cl)cc1Cl
IC50 [2]: 4.25 µM (not active)

CC1CN(C(=O)CCc2cc(C(C)(C)C)c(O)c(C(C)(C)C)c2)CC(C)O1 (stereo not given)
AC50 [10]: 3.99 µM (active) | AC50 [11]: 2.56 µM (active)

CC(=O)Nc1ccc(NC(=O)Cc2ccc(S(=O)(=O)N3CCCCC3)s2)cc1
IC50 [2]: 2.64 µM (not active)

CCOC(=O)c1c(NC(=O)C(C)Sc2cccc[n+]2[O-])sc2c1CCN(Cc1ccccc1)C2 (stereo not given)
EC50 [1]: 4.81 µM (active)
